How the values were obtained:
Assay in all cases: Preemergent control of plant species
cotton = assay type: in vivo, Gossypium spp.; conditions: Gossypium hirsutum, pre-emergence, 336 h; 0.25 lb/acre; read-out: percent preemergent control
Description: (§1) The seeds of various species of plants were planted in beds of good agricultural soil in a greenhouse. A number of compositions of the present invention, generally in the nature of an aqueous emulsion, were applied at rates listed in the table so as to deposit a predetermined amount of active ingredients uniformly throughout the surface of the bed. Another seed bed was treated only with water to serve as a control. After treatment the seed beds were maintained for two weeks under greenhouse conditions conducive for good plant growth and watered as necessary. Control refers to the reduction in growth compared to the observed results of the same untreated species.

rape = assay type: in vivo, Brassica napus; conditions: Brassica napus, pre-emergence, 336 h; 0.25 lb/acre; read-out: percent preemergent control
Description: as §1

soybean = assay type: in vivo, Glycine max.; conditions: Glycine max, pre-emergence, 336 h; 0.25 lb/acre; read-out: percent preemergent control
Description: as §1

sugar beet = assay type: in vivo, Beta saccharifera; conditions: Beta vulgaris, pre-emergence, 336 h; 0.25 lb/acre; read-out: percent preemergent control
Description: as §1

jimsonweed = assay type: in vivo, Datura stramonium; conditions: Datura stramonium, pre-emergence, 336 h; 0.25 lb/acre; read-out: percent preemergent control
Description: as §1

annual morning glory = assay type: in vivo, Ipomoea spp.; conditions: Ipomoea, pre-emergence, 336 h; 0.25 lb/acre; read-out: percent preemergent control
Description: as §1

velvetleaf = assay type: in vivo, Abutilon theophrasti; conditions: Abutilon theophrasti, pre-emergence, 336 h; 0.25 lb/acre; read-out: percent preemergent control
Description: as §1

corn = assay type: in vivo, Zea mays; conditions: Zea mays, pre-emergence, 336 h; 0.25 lb/acre; read-out: percent preemergent control
Description: as §1

sorghum = assay type: in vivo, Sorghum vulgare; conditions: Sorghum, pre-emergence, 336 h; 0.25 lb/acre; read-out: percent preemergent control
Description: as §1

wheat = assay type: in vivo, Triticum aestivum; conditions: Triticum aestivum, pre-emergence, 336 h; 0.25 lb/acre; read-out: percent preemergent control
Description: as §1

barnyardgrass = assay type: in vivo, Echinochloa crusgalli; conditions: Echinochloa crus-galli, pre-emergence, 336 h; 0.25 lb/acre; read-out: percent preemergent control
Description: as §1

johnson grass = assay type: in vivo, Sorghum halepense; conditions: Sorghum halepense, pre-emergence, 336 h; 0.25 lb/acre; read-out: percent preemergent control
Description: as §1

yellow foxtail = assay type: in vivo, Setaria lutescens; conditions: Setaria, pre-emergence, 336 h; 0.25 lb/acre; read-out: percent preemergent control
Description: as §1

yellow nutsedge = assay type: in vivo, Cyperus esculentus; conditions: Cyperus, pre-emergence, 336 h; 0.25 lb/acre; read-out: percent preemergent control
Description: as §1

rice = assay type: in vivo, Oryza sativa; conditions: Oryza sativa, pre-emergence, 336 h; 0.25 lb/acre; read-out: percent preemergent control
Description: as §1

Row | SMILES | plant injury at 280.212 g/ha (cotton) [%] | plant injury at 280.212 g/ha (rape) [%] | plant injury at 280.212 g/ha (soybean) [%] | plant injury at 280.212 g/ha (sugar beet) [%] | pest or weed control at 280.212 g/ha (jimsonweed) [%] | pest or weed control at 280.212 g/ha (annual morning glory) [%] | pest or weed control at 280.212 g/ha (velvetleaf) [%] | plant injury at 280.212 g/ha (corn) [%] | plant injury at 280.212 g/ha (sorghum) [%] | plant injury at 280.212 g/ha (wheat) [%] | pest or weed control at 280.212 g/ha (barnyardgrass) [%] | pest or weed control at 280.212 g/ha (johnson grass) [%] | pest or weed control at 280.212 g/ha (yellow foxtail) [%] | pest or weed control at 280.212 g/ha (yellow nutsedge) [%] | plant injury at 280.212 g/ha (rice) [%]
1 | Cc1cc(C(F)(F)F)n2nc(S(=O)(=O)Nc3c(F)cccc3F)nc2n1 [Compound 228] | 90 | 80 | 20 | 100 | 100 | 70 | 90 | 50 | 100 | 50 | 90 | 90 | 50 | 50 | 
2 | COc1ccc(F)c(NS(=O)(=O)c2nc3nc(C)ccn3n2)c1F [Compound 172] | 100 |  | 90 | 100 | 100 | 90 | 100 | 80 | 100 | 90 | 100 | 90 | 100 | 100 | 100
3 | O=S(=O)(Nc1c(Cl)cccc1Cl)c1nc2ncccn2n1 [Compound 137] | 80 |  | 0 | 100 | 10 | 70 | 80 | 0 | 30 | 30 | 20 | 20 | 20 | 100 | 50
4 | Cc1cn2nc(S(=O)(=O)Nc3c(Cl)cccc3Cl)nc2nc1N(C)C [Compound 237] | 50 |  | 40 | 50 | 10 | 20 | 0 | 20 | 20 | 100 | 10 | 10 | 30 | 30 | 20
5 | Cc1ccc(F)c(NS(=O)(=O)c2nc3nccc(C)n3n2)c1F [Compound 190] | 90 |  | 90 | 100 | 90 | 50 | 50 | 10 | 95 | 20 | 30 | 30 | 70 | 100 | 20
6 | CSc1nc2nc(S(=O)(=O)Nc3c(Cl)cccc3Cl)nn2cc1C [Compound 235] | 50 |  | 0 | 50 | 50 | 90 | 20 | 50 | 50 | 50 |  | 0 | 20 | 0 | 10

From US4740233A, “Substituted 1,2,4-triazolo[1,5-a]-pyrimidine-2-sulfonamides and compositions and methods of controlling undesired vegetation and suppressing the nitrification of ammonium nitrogen in soil” (The Dow Chemical Company, priority 1986, dated 1988)
